Biological target: Lethal factor protease (Bacillus anthracis, UniProt P15917)
Assay: biochemical

Sequence of Lethal factor protease (P15917 34-809 limits assumed): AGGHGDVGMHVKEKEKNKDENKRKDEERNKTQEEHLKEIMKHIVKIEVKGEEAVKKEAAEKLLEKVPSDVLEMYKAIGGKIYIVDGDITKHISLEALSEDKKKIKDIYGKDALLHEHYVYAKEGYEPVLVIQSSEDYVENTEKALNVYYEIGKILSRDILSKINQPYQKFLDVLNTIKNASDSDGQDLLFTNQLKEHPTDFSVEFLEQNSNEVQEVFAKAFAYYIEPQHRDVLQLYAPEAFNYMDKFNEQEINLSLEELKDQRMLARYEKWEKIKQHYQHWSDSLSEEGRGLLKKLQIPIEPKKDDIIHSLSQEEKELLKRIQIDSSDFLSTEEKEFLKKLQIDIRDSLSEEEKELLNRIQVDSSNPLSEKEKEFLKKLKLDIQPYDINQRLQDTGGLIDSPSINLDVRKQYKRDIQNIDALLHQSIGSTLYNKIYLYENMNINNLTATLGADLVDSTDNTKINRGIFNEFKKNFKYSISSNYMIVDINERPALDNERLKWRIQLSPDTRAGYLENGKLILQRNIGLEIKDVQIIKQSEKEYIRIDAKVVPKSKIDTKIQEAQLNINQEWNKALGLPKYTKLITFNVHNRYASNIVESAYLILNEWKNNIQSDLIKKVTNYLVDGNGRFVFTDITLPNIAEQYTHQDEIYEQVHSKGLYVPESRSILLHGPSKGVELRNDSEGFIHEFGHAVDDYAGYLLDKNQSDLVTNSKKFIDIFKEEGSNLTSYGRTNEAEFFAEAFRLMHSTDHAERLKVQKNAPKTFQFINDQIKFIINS

First: Cc1cc(CNCCCC[C@@H](Nc2cc(C)c(F)c(C)c2)C(=O)NO)cc(C)c1F [Compound 167759, 6-(4-Fluoro-3,5-dimethyl-benzylamino)-2-(4-fluoro-3,5-dimethyl-phenylamino)-hexanoic acid hydroxyamide]
Second: Cc1cc(COCCCC[C@@H](Nc2cc(C)c(F)c(C)c2)C(=O)NO)ccc1F [Compound 168116, (R)-2-(4-Fluoro-3,5-dimethyl-phenylamino)-6-(4-fluoro-3-methyl-benzyloxy)-hexanoic acid hydroxyamide]
The Ki of the first is 10-fold lower: 70 nM for the first, 710 nM for the second. The first binds more tightly here.

CCCCC(Nc1cccc(C#N)c1)C(=O)NO (stereo not shown) [Compound 167719, 2-(3-Cyano-phenylamino)-hexanoic acid hydroxyamide] and CCCCC(Nc1cccc(C)c1)C(=O)NO (stereo not shown) [Compound 167170, 2-m-Tolylamino-hexanoic acid hydroxyamide] are within 1.5-fold of each other in Ki: 49000 nM for the first, 34100 nM for the second.

First: Cc1cc(N[C@H](CO)C(=O)NO)cc(C)c1F [Compound 167485, (R)-2-(4-Fluoro-3,5-dimethyl-phenylamino)-3,N-dihydroxy-propionamide]
Second: CCCC[C@H](Nc1cc(C)c(F)c(C)c1)C(=O)NO [Compound 167295, (S)-2-(4-Fluoro-3,5-dimethyl-phenylamino)-hexanoic acid hydroxyamide]
The Ki of the first is 180-fold lower: 590 nM for the first, 106000 nM for the second. The first binds more tightly here.

Compared with CCCCC(Nc1ccc(OC)cc1)C(=O)NO (stereo not shown) [Compound 167275, 2-(4-Methoxy-phenylamino)-hexanoic acid hydroxyamide], CCCCC(Nc1ccc(F)c(OC)c1)C(=O)NO (stereo not shown) [Compound 167793, 2-(4-Fluoro-3-methoxy-phenylamino)-hexanoic acid hydroxyamide] is 1.8-fold higher in Ki: 88100 nM for the first, 157000 nM for the second.

Going from Cc1cc(N[C@H](CCCCNCc2ccccc2)C(=O)NO)ccc1F [Compound 167980, (R)-6-Benzylamino-2-(4-fluoro-3-methyl-phenylamino)-hexanoic acid hydroxyamide] to Cc1cc(N[C@H](CCCCNCc2ccc(F)cc2)C(=O)NO)ccc1F [Compound 167945, (R)-6-(4-Fluoro-benzylamino)-2-(4-fluoro-3-methyl-phenylamino)-hexanoic acid hydroxyamide], the Ki falls from 150 nM to 30 nM (5-fold). The second binds more tightly here.

CNc1ccc(S(=O)(=O)NCCCC[C@@H](Nc2cc(C)c(F)c(C)c2)C(=O)NO)cc1 [Compound 167657, (R)-2-(4-Fluoro-3,5-dimethyl-phenylamino)-6-(4-methylamino-benzenesulfonylamino)-hexanoic acid hydroxyamide] and Cc1cc(N[C@H](CCCCNS(=O)(=O)c2ccc(N)cc2)C(=O)NO)cc(C)c1F [Compound 167656, (R)-6-(4-Amino-benzenesulfonylamino)-2-(4-fluoro-3,5-dimethyl-phenylamino)-hexanoic acid hydroxyamide] are within 1.5-fold of each other in Ki: 410 nM for the first, 610 nM for the second.

First: CCCCC(Nc1cccc(-c2ccccc2)c1)C(=O)NO (stereo not shown) [Compound 167202, 2-(Biphenyl-3-ylamino)-hexanoic acid hydroxyamide]
Second: CCCCC(Nc1ccc(F)c(Cl)c1)C(=O)NO (stereo not shown) [Compound 167322, 2-(3-Chloro-4-fluoro-phenylamino)-hexanoic acid hydroxyamide]
The Ki of the first is 14-fold higher: 236000 nM for the first, 17100 nM for the second.

Going from CCCCC(Nc1cc(C)cc(Br)c1)C(=O)NO (stereo not shown) [Compound 167844, 2-(3-Bromo-5-methyl-phenylamino)-hexanoic acid hydroxyamide] to CCCCC(Nc1cc(C)cc(F)c1)C(=O)NO (stereo not shown) [Compound 167722, 2-(3-Fluoro-5-methyl-phenylamino)-hexanoic acid hydroxyamide], the Ki rises from 3500 nM to 19000 nM (5.4-fold).

Going from Cc1cc(N[C@H](CCCCNC(=O)Cc2ccc(-n3c(C)ccc3C)cc2)C(=O)NO)cc(C)c1F [Compound 167592, (R)-6-{2-[4-(2,5-Dimethyl-pyrrol-1-yl)-phenyl]-acetylamino}-2-(4-fluoro-3,5-dimethyl-phenylamino)-hexanoic acid hydroxyamide] to Cc1cc(N[C@H](CCCCNC(=O)OCc2ccccc2)C(=O)NO)cc(C)c1F [Compound 167503, (R)-[5-(4-Fluoro-3,5-dimethyl-phenylamino)-5-hydroxycarbamoyl-pentyl]-carbamic acid benzyl ester], the Ki falls from 1440 nM to 290 nM (5-fold).

Cc1cc(N[C@H](CCCCN(Cc2ccc(F)cc2)Cc2ccc(F)cc2)C(=O)NO)ccc1F [Compound 167963, (R)-6-[Bis-(4-fluoro-benzyl)-amino]-2-(4-fluoro-3-methyl-phenylamino)-hexanoic acid hydroxyamide] and Cc1cc(N[C@H](CCCCN(Cc2ccc(F)cc2)Cc2ccc(F)cc2)C(=O)NO)cc(C)c1F [Compound 168047, (R)-6-[Bis-(4-fluoro-benzyl)-amino]-2-(4-fluoro-3,5-dimethyl-phenylamino)-hexanoic acid hydroxyamide] are within 1.5-fold of each other in Ki: 1100 nM for the first, 790 nM for the second.

First: Cc1cc(N[C@H](CCCCNS(=O)(=O)c2cccc(C(=O)O)c2)C(=O)NO)cc(C)c1F [Compound 167621, (R)-3-[5-(4-Fluoro-3,5-dimethyl-phenylamino)-5-hydroxycarbamoyl-pentylsulfamoyl]-benzoic acid]
Second: Cc1cc(N[C@H](CCCCNS(=O)(=O)c2ccc(C(=O)O)cc2)C(=O)NO)cc(C)c1F [Compound 167613, (R)-4-[5-(4-Fluoro-3,5-dimethyl-phenylamino)-5-hydroxycarbamoyl-pentylsulfamoyl]-benzoic acid]
The Ki of the first is 2.3-fold lower: 1570 nM for the first, 3660 nM for the second.

Going from Cc1cc(N[C@H](CCCCN)C(=O)NO)ccc1F [Compound 167949, (R)-6-Amino-2-(4-fluoro-3-methyl-phenylamino)-hexanoic acid hydroxyamide] to Cc1cc(N[C@H](CCCCNC(=O)OC(C)(C)C)C(=O)NO)ccc1F [Compound 167926, (R)-[5-(4-Fluoro-3-methyl-phenylamino)-5-hydroxycarbamoyl-pentyl]-carbamic acid tert-butyl ester], the Ki rises from 200 nM to 2900 nM (14-fold). The first binds more tightly here.

Going from CCCCC(Nc1ccc(F)c(C#N)c1)C(=O)NO (stereo not shown) [Compound 167720, 2-(3-Cyano-4-fluoro-phenylamino)-hexanoic acid hydroxyamide] to CCCC[C@@H](Nc1cc(C)c(F)c(C)c1)C(=O)NO [Compound 167294, (R)-2-(4-Fluoro-3,5-dimethyl-phenylamino)-hexanoic acid hydroxyamide], the Ki falls from 11800 nM to 520 nM (23-fold). The second binds more tightly here.

Compared with Cc1cc(CN(CCCC[C@@H](Nc2cc(C)c(F)c(C)c2)C(=O)NO)Cc2ccc(F)c(C)c2)ccc1F [Compound 167933, (R)-6-[Bis-(4-fluoro-3-methyl-benzyl)-amino]-2-(4-fluoro-3,5-dimethyl-phenylamino)-hexanoic acid hydroxyamide], Cc1cc(N[C@H](CCCCN(C)Cc2ccc(F)cc2)C(=O)NO)ccc1F [Compound 168147, (R)-6-[(4-Fluoro-benzyl)-methyl-amino]-2-(4-fluoro-3-methyl-phenylamino)-hexanoic acid hydroxyamide] is 10-fold lower in Ki: 1900 nM for the first, 190 nM for the second. The second binds more tightly here.

Cc1cc(NC(C)C(=O)NO)cc(C)c1F (stereo not shown) [Compound 167486, 2-(4-Fluoro-3,5-dimethyl-phenylamino)-N-hydroxy-propionamide] and Cc1cc(N[C@H](C)C(=O)NO)cc(C)c1F [Compound 167497, (R)-2-(4-Fluoro-3,5-dimethyl-phenylamino)-N-hydroxy-propionamide] are within 1.5-fold of each other in Ki: 690 nM for the first, 470 nM for the second.

Compared with Cc1cc(N[C@H](Cc2ccccc2)C(=O)NO)cc(C)c1F [Compound 167378, (R)-2-(4-Fluoro-3,5-dimethyl-phenylamino)-N-hydroxy-3-phenyl-propionamide], Cc1cc(N[C@H](COCc2ccccc2)C(=O)NO)cc(C)c1F [Compound 167379, (R)-3-Benzyloxy-2-(4-fluoro-3,5-dimethyl-phenylamino)-N-hydroxy-propionamide] is 4.9-fold lower in Ki: 7000 nM for the first, 1440 nM for the second.

Compared with Cc1cc(NC(C(=O)NO)c2ccccc2)ccc1F (stereo not shown) [Compound 167228, 2-(4-Fluoro-3-methyl-phenylamino)-N-hydroxy-2-phenyl-acetamide], Cc1cc(N[C@H](C)C(=O)NO)ccc1F [Compound 167392, (R)-2-(4-Fluoro-3-methyl-phenylamino)-N-hydroxy-propionamide] is 2.9-fold lower in Ki: 2800 nM for the first, 960 nM for the second. The second binds more tightly here.

Compared with Cc1cc(N[C@H](CCCCNCc2ccc(F)nc2)C(=O)NO)ccc1F [Compound 167978, (R)-2-(4-Fluoro-3-methyl-phenylamino)-6-[(6-fluoro-pyridin-3-ylmethyl)-amino]-hexanoic acid hydroxyamide], Cc1cc(N[C@H](CCCCNCc2ccc(F)c(F)c2)C(=O)NO)ccc1F [Compound 167990, (R)-6-(3,4-Difluoro-benzylamino)-2-(4-fluoro-3-methyl-phenylamino)-hexanoic acid hydroxyamide] is 2.6-fold lower in Ki: 260 nM for the first, 100 nM for the second.

Compared with Cc1cc(NCC(=O)NO)ccc1F [Compound 166986, 2-(4-Fluoro-3-methyl-phenylamino)-N-hydroxy-acetamide], Cc1cc(NCC(=O)NO)cc(C)c1F [Compound 167452, 2-(4-Fluoro-3,5-dimethyl-phenylamino)-N-hydroxy-acetamide] is 1.9-fold lower in Ki: 7600 nM for the first, 4000 nM for the second.

Going from Cc1cc(N[C@H](CCCCNCC2CCCCC2)C(=O)NO)ccc1F [Compound 168146, (R)-6-(Cyclohexylmethyl-amino)-2-(4-fluoro-3-methyl-phenylamino)-hexanoic acid hydroxyamide] to Cc1cc(N[C@H](CCCCNCc2ccc(Cl)s2)C(=O)NO)ccc1F [Compound 168008, (R)-6-[(5-Chloro-thiophen-2-ylmethyl)-amino]-2-(4-fluoro-3-methyl-phenylamino)-hexanoic acid hydroxyamide], the Ki falls from 250 nM to 60 nM (4.2-fold). The second binds more tightly here.

First: Cc1cc(N[C@H](C(=O)NO)C(C)C)cc(C)c1F [Compound 167296, (5)-2-(4-Fluoro-3,5-dimethyl-phenylamino)-N-hydroxy-3-methyl-butyramide]
Second: Cc1cc(N[C@H](CCCCNS(=O)(=O)c2ccc(N(C)C)cc2)C(=O)NO)cc(C)c1F [Compound 167699, (R)-6-(4-Dimethylamino-benzenesulfonylamino)-2-(4-fluoro-3,5-dimethyl-phenylamino)-hexanoic acid hydroxyamide]
The Ki of the first is 470-fold higher: 201000 nM for the first, 430 nM for the second.

Cc1cc(N[C@H](CCCCNCc2cc3ccccc3o2)C(=O)NO)ccc1F [Compound 168166, (R)-6-[(Benzofuran-2-ylmethyl)-amino]-2-(4-fluoro-3-methyl-phenylamino)-hexanoic acid hydroxyamide] gave a Ki of 180 nM.
